For orientation: Cmax means the highest concentration seen after dosing. As a reminder, the Vss is the apparent volume that relates the amount in the body to the concentration in plasma or blood.

In data set [1] the test system is IL-12-induced IFN-γ secretion in NK92 cells. Description: Inhibition of IL-12-induced IFN-γ secretion in NK92 cells (ELISA). As to conditions: Homo sapiens, IL-12, 24 hours, read-out: IC50 (NK92_IL12/IFN-γ). It is filed as cell-based. As for the experimental part: The effect of the compounds of the present invention on IFN-γ secretion induced by TYK2 in NK92 cells is evaluated by an enzyme-linked immunosorbent assay (ELISA) (Table 2).
IL-12 receptor is mainly expressed in activated T-cells, NK cells (NK92 is a NK cell line), DC cells, and B-cells. When binding to IL-12, it activates JAK2/TYK2 signal transduction pathway within NK cells and T lymphocytes, thereby inducing secretion of IFN-γ.
The experimental method is generally described below:
The 96-well plate is then incubated overnight in a 37° C./5% CO2 incubator.
The plate is centrifuged at 800 rpm for 10 minutes at room temperature and 50 μL of the supernatant from each well is transferred to another 96-well plate (Sigma, Cat No. CLS3695) coated with anti-IFN-γ antibody. The amount of IFN-γ secretion is detected following the instruction from the Human IFN-gamma DuoSet ELISA kit (R & D Systems, Cat No. DY285B). […] The percentage of inhibition on IL-12 induced IFN-γ secretion in NK-92 cells by the test compound is calculated using the following formula: […]
The IC50 value of the test compound is calculated from 8 concentration points using the XLfit software (ID Business Solutions Ltd., UK) by the following formula: […]
Where Y is the percentage of inhibition, X is the logarithm of the concentration of the test compound, Bottom is the bottom plateau value of the S-shaped curve, Top is the top plateau value of the S-shaped curve, and slope factor is the slope coefficient of the curve.
(In an ELISA, binding on a coated surface is turned into a signal by an enzyme label.)

Data set [2] can be described thus: In vivo rat PK determination. Set-up: species or system Sprague Dawley rats. As to conditions: for F: PO (5 mpk) vs IV (1 mpk); for AUClast / Cmax: PO (5 mpk), n = 3. As for the experimental part: The pharmacokinetics of Compound 3 of the present invention and the reference compound BMS-986165 were evaluated. Compound 3 has an OCD3 on a benzene ring, whereas the reference compound has an CD3 on an amide moiety. Methyl group is typically labile in vivo, subject to hydrolysis by amidase in the case of methylamide and to oxidative demethylation by CYPs in the case of methoxy and methyltriazole. Substituting methyl with tri-deuterated methyl improves the bioavailability and in vivo exposure of the compound and provides a better efficacy of the compound under the same dose.
Compound 3 and the reference compound in a 0.5 mg/mL solution containing 5% N,N-dimethylacetamide+20% solutol+75% saline were orally administered to three male Sprague Dawley rats at a dose of 5 mg/kg. Blood samples were collected at 0.25, 0.5, 1, 2, 4, 8 and 24 hours after administration. The concentrations of the compound in the plasma were quantified by LC-MS/MS using an API-4500 mass spectrometer. The limit of quantification (LOQ) of analysis was 1 ng/mL. The pharmacokinetic (PK) parameters were calculated by the non-compartmental method using WinNonlin and are present in Table 3.

Data set [3] deals with anti-CD40 antibody-induced colitis. Nature of the data set: Anti-CD40 antibody-induced colitis animal model. The format is in vivo, CB17-Scid mice. The following applies: for Spleen weight, Mean: Day 8; for protection from colitis (body weight loss and spleen enlargement) versus vehicle group: Compound 3 at 1.5, 5 and 15 mg/kg, reference compound at 5 mg/kg, oral twice daily; for body weight loss after treatment in anti-CD40 colitis (IBD) model: mice. As for the experimental part:
The female CB17-Scid mice (8-10 weeks old, 18-20 g) from Beijing Vital River laboratory were randomly divided into 5 groups (n=8 per group). On Day 0, colitis was induced in mice each with a single intraperitoneal injection of 100 μg of FGK4.5 anti-CD40 mAb (BioXCell, Cat. No. EB0016-2) in PBS. […] On a daily basis, mice were weighed and monitored for signs of colitis including body weight loss and the accompanying loose stools and diarrhea. On Day 8, all animals were euthanized. Spleen tissues were collected and weighed.

Data set [4] in a line: In vivo rat PK determination. More on the design: species or system Sprague Dawley rats. As to conditions: IV (1 mpk); for CL / Vss: n = 3; for T1/2: n = 3 (header span assumed).

On to `[2H]C([2H])([2H])NC(=O)c1nnc(NC(=O)C2CC2)cc1Nc1cccc(-c2ncn(C)n2)c1OC` [BMS-986165, reference compound], for which, in data set [1], the IC50 amounted to 0.017 µM. For the same molecule, in data set [2], the F is reported as 46%, the AUClast turned out to be 2828 ng·h/mL and the highest concentration (Cmax) turned out to be 632 ng/mL. The “Spleen weight, Mean” value in data set [3] (5 mg/kg oral twice daily) turned out to be 0.036 g. Besides, the “protection from colitis (body weight loss and spleen enlargement) versus vehicle group” value in data set [3] is “significantly protected mice from colitis”. In data set [4], this molecule yielded a CL of 14 mL/min/kg, a Vss of 1.5 L/kg and a T1/2 of 3.3 h.

`[2H]C([2H])([2H])NC(=O)c1nnc(NC(=O)C2CC2)cc1Nc1cccc(-c2ncn(C([2H])([2H])[2H])n2)c1OC` [Compound 1, 6-(cyclopropanecarboxamido)-4-((2-methoxy-3-(1-(methyl-d3)-1H-1,2,4-triazol-3-yl)phenyl)amino)-N-(methyl-d3)pyridazine-3-carboxamide]: the IC50 in data set [1] worked out at 0.016 µM.

With `[2H]C([2H])([2H])n1cnc(-c2cccc(Nc3cc(NC(=O)C4CC4)nnc3C(=O)NC)c2OC)n1` [Compound 2, 6-(cyclopropanecarboxamido)-4-((2-methoxy-3-(1-(methyl-d3)-1H-1,2,4-triazol-3-yl)phenyl)amino)-N-methylpyridazine-3-carboxamide], in data set [1], the IC50 stood at 0.013 µM. Also, the “body weight loss after treatment in anti-CD40 colitis (IBD) model” value (“body weight loss after treatment” below) in data set [3] is reported as “no significant body weight loss”.

Take `[2H]C([2H])([2H])Oc1c(Nc2cc(NC(=O)C3CC3)nnc2C(=O)NC)cccc1-c1ncn(C)n1` [Compound 3, 6-(cyclopropanecarboxamido)-4-((2-(methoxy-d3)-3-(1-methyl-1H-1,2,4-triazol-3-yl)phenyl)amino)-N-methylpyridazine-3-carboxamide]: in data set [1], the IC50 amounted to 0.014 µM. In data set [2], this molecule had an F of 92%, an AUClast of 6560 ng·h/mL and a Cmax of 971 ng/mL. In addition, the “in vivo exposure compared with reference compound” value in data set [2] (oral 5 mg/kg) is recorded as “better in vivo exposures than the reference compound”. The “Spleen weight, Mean” value in data set [3] (1.5 mg/kg oral twice daily) stood at 0.060 g. Moreover, in data set [3] (5 mg/kg oral twice daily), the “Spleen weight, Mean” value came out at 0.037 g. The “Spleen weight, Mean” value in data set [3] (15 mg/kg oral twice daily) worked out at 0.025 g. Also, in data set [3], the “protection from colitis (body weight loss and spleen enlargement) versus vehicle group” value is “significantly protected mice from colitis”; the “body weight loss after treatment” value is recorded as “no significant body weight loss”. In data set [4], this molecule had a CL of 12 mL/min/kg, a Vss of 1.1 L/kg and a T1/2 of 4.3 h.

Take `[2H]C([2H])([2H])NC(=O)c1nnc(NC(=O)C2CC2)cc1Nc1cccc(-c2ncn(C)n2)c1OC([2H])([2H])[2H]` [Compound 4, 6-(cyclopropanecarboxamido)-4-((2-(methoxy-d3)-3-(1-methyl-1H-1,2,4-triazol-3-yl)phenyl)amino)-N-(methyl-d3)pyridazine-3-carboxamide]: in data set [1], the IC50 worked out at 0.011 µM.

For `[2H]C([2H])([2H])NC(=O)c1nnc(NC(=O)[C@@H]2CC2(F)F)cc1Nc1cccc(-c2ncn(C)n2)c1OC` [Compound 5, (S)-6-(2,2-difluorocyclopropane-1-carboxamido)-4-((2-methoxy-3-(1-methyl-1H-1,2,4-triazol-3-yl)phenyl)amino)-N-(methyl-d3)pyridazine-3-carboxamide], in data set [1], the IC50 was found to be 0.052 µM. Moreover, the “body weight loss after treatment” value in data set [3] is reported as “no significant body weight loss”.

Consider `CNC(=O)c1nnc(NC(=O)[C@@H]2CC2(F)F)cc1Nc1cccc(-c2ncn(C)n2)c1OC` [Compound 6, (S)-6-(2,2-difluorocyclopropane-1-carboxamido)-4-((2-methoxy-3-(1-methyl-1H-1,2,4-triazol-3-yl)phenyl)amino)-N-methylpyridazine-3-carboxamide], for which the IC50 in data set [1] was 0.047 µM.

As to `[2H]C([2H])([2H])NC(=O)c1nnc(NC(=O)[C@H]2CC2(F)F)cc1Nc1cccc(-c2ncn(C)n2)c1OC` [Compound 7, (R)-6-(2,2-difluorocyclopropane-1-carboxamido)-4-((2-methoxy-3-(1-methyl-1H-1,2,4-triazol-3-yl)phenyl)amino)-N-(methyl-d3)pyridazine-3-carboxamide], the IC50 in data set [1] turned out to be 0.074 µM.

The record behind these values is US11578058B2, “Heterocyclic compounds for inhibiting TYK2 activities” (Beijing InnoCare Pharma Tech Co., Ltd., priority 2020, dated 2023).
